From US20060058268A1, “Compounds and methods for treating diabetic vascular diseases” (priority 2004, published 2006)
Where a name gives a salt, the structure may show the parent alone.

Test system: VCAM-1
Assay: VCAM-1 assay with ELISA readout (Examples 5-6)
Type: cell-based
Details: for IC50: TNF added with compound, incubated overnight (approximately 16 hours)
Experimental: Two to four confluent P150 plates are trypsinized and the cells transferred to a 50 mL conical centrifuge tube. The cells are pelleted, resuspended, and counted using the trypan blue exclusion method.
Cells are resuspended at a concentration of 36,000 cells/mL and 1 mL is aliquoted per well.
Cells are split into 24 well tissue culture plates. The cells in each well should be approximately 90-95% confluent by the following day. Cells should not be older than passage 8.
Compounds are initially screened at 50 μM and 10 μM. A 50 mM stock solution for each compound is prepared in culture medium. The stock solution is diluted to 5 mM and 1 mM. When 10 μL of the 5 mM solution is added to the well (1 mL medium/well), the final concentration will be 50 μM. Adding 10 μL of the 1 mM solution to the well will give a final concentration of 10 μM.
Compounds which will not go into solution in culture medium are resuspended in DMSO at a concentration of 25 mM. The stock solution is then diluted to the final concentration in culture medium. The old medium is aspirated and 1 mL of the new medium with the compound is added. For example, if the final concentration is 50 µM, the 2 μL of the 25 mM stock is added per mL of culture medium. The […] solution is diluted for lower concentrations.
The compounds are added to the plate (each compound is done in duplicate). One plate is done for VCAM expression and one plate is done for ICAM expression.
Immediately after the compounds are added, TNF is added to each well. 100 units/mL TNF is usually added to each well. Since each lot of TNF varies in the number of units, each new lot is titrated to determine the optimum concentration. Therefore this concentration will change. If 100 units/mL is being used, dilute the TNF to 10 units/μL and add 10 μL to each well.
The plates are incubated at 37° C., 5% CO2 overnight (approximately 16 hours). The next day the plates are checked under the microscope to see if there are any visual signs of toxicity. Records are made of any cell death, debris, or morphology changes, as well as insoluble compounds (particulate or turbity).
In order to assess MCP-1, the media (500 μL) is saved and frozen at −70° C. Wash cells once with roughly 1 ml/well of Hanks Balance Salt Solution (HBSS) or PBS. Gently empty the wash solution and then tap the plate onto paper towels. Add either 250 μL/well of HBSS+5% FCCS to the plank (no primary antibody wells) or 250 μL/well of primary antibody diluted in HBSS+5% FCS. Incubate for 30 minutes at 37° C. Wash the wells twice with 0.5 mL/well HBSS or PBS and gently tap the plates onto paper towels after the last wash. Add 250 μL/well of HRP-conjugated second antibody diluted in HBSS+5% FCS to every well including the blank wells (no primary antibody). Incubate at 37° C. for 30 minutes. Wash the wells four times with 0.5 mL/well HBSS or PBS and gently tap the plates onto paper towels after the last wash. Add 250 μL/well of substrate solution. Incubate at room temperature in the dark until there is adequate color development (blue). Note the length of time incubation was performed (typically 15-30 minutes). Add 75 μL/well stopper solution (8N sulfuric acid), and read at 450 nm.

Compound | IC50 [µM] | IC50 (16 h) [µM] | also measured
2,6-di-tert-butyl-4-thio(3′,5′-ditert-butyl,4′-hydroxy butanedioic acid ester)phenol | 6 |  | 
CC(C)(Sc1cc(C(C)(C)C)c(O)c(C(C)(C)C)c1)Sc1cc(C(C)(C)C)c(OCC(O)CO)c(C(C)(C)C)c1 (centres unmarked) [1,2-Propanediol, 3-[4-[[1-[[3,5-bis(1,1-dimethylethyl)-4-hydroxyphenyl]thio]-1-methylethyl]thio]-2,6-bis(1,1-dimethylethyl)phenoxy]-] |  | 30 | 
COc1c(C(C)(C)C)cc(SCc2ccc(C(F)(F)F)cc2)cc1C(C)(C)C [2,6-di-tert-butyl-1-methoxy-4-thio(4′-trifluoromethyl)benzyl)benzene] | > 50 |  | 
CC(=O)OC(C)(C)CSc1cc(C(C)(C)C)c(O)c(C(C)(C)C)c1 [2,6-di-tert-butyl-4-thio(2′-acetoxy,2′-methylpropyl)phenol] | 50 |  | 
CC(C)(C)c1cc(SCCCS(=O)(=O)O)cc(C(C)(C)C)c1O [2,6-di-tert-butyl-4-thio(3′-propanesulfonic acid)phenol] |  |  | VCAM-1 inhibition at [μM] (at 50 μM): 25% at 50
CC(C)(C)c1cc(SCc2ccc(F)cc2)cc(C(C)(C)C)c1O [2,6-di-tert-butyl-4-thio(4′-fluorobenzyl)phenol] | 35 |  | 
Cc1ccc(CSc2cc(C(C)(C)C)c(O)c(C(C)(C)C)c2)cc1 [2,6-di-tert-butyl-4-thio(4′-methylbenzyl)phenol] | 75 |  | 
CN(C)Cc1ccc(CSc2cc(C(C)(C)C)c(O)c(C(C)(C)C)c2)o1 [2,6-di-tert-butyl-4-thio(5′-methyl-2′-((dimethylamino)methyl)furan)phenol] | 10 |  | 
CC(C)(Sc1cc(C(C)(C)C)c(O)c(C(C)(C)C)c1)Sc1cc(C(C)(C)C)c(OC(=O)c2ccc([N+](=O)[O-])o2)c(C(C)(C)C)c1 [2-Furancarboxylic acid, 5-nitro-, 4-[[1-[[3,5-bis(1,1-dimethylethyl)-4-hydroxyphenyl]thio]-1-methylethyl]thio]-2,6-bis(1,1-dimethylethyl)phenyl ester] |  | 25 | 
CC(C)(Sc1cc(C(C)(C)C)c(O)c(C(C)(C)C)c1)Sc1cc(C(C)(C)C)c(O/C=C/C(=O)O)c(C(C)(C)C)c1 [2-Propenoic acid, 3-[4-[[1-[[3,5-bis(1,1-dimethylethyl)-4-hydroxyphenyl]thio]-1-methylethyl]thio]-2,6-bis(1,1-dimethylethyl)phenoxy]-, (E)-] |  | 30 | 
C=CC(=O)OCCCCOc1c(C(C)(C)C)cc(SC(C)(C)Sc2cc(C(C)(C)C)c(O)c(C(C)(C)C)c2)cc1C(C)(C)C [2-Propenoic acid, 4-[4-[[1-[[3,5-bis(1,1-dimethylethyl)-4-hydroxyphenyl]thio]-1-methylethyl]thio]-2,6-bis(1,1-dimethylethyl)phenoxy]butyl ester] |  | 75 | 
CC(C)(Sc1cc(C(C)(C)C)c(O)c(C(C)(C)C)c1)Sc1cc(C(C)(C)C)c(OCC(=O)O)c(C(C)(C)C)c1 [Acetic acid, [4-[[1-[[3,5-bis(1,1-dimethylethyl)-4-hydroxyphenyl]thio]-1-methylethyl]thio]2,6-bis(1,1-dimethylethyl)phenoxy]-] |  | 10 | 
CN(C)c1ccc(CCOc2c(C(C)(C)C)cc(SC(C)(C)Sc3cc(C(C)(C)C)c(OCCc4ccc(N(C)C)cc4)c(C(C)(C)C)c3)cc2C(C)(C)C)cc1 [Benzenamine, 4,4′-[(1-methylethylidene)bis [thio[2,6-bis(1,1-dimethylethyl)-4,1-phenylene]oxy-2,1-ethanediyl]]bis[N,N-dimethyl-] | > 50 |  | 
CC(C)(Sc1cc(C(C)(C)C)c(O)c(C(C)(C)C)c1)Sc1cc(C(C)(C)C)c(OC(=O)CCC(=O)O)c(C(C)(C)C)c1 [Butanedioic acid, mono [4-[[1-[[3,5-bis(1,1-dimethylethyl)-4-hydroxyphenyl]thio]-1-methylethyl]thio]2,6-bis(1,1-dimethylethyl)phenyl] ester] | 5.6 |  | 
CC(C)(Sc1cc(C(C)(C)C)c(O)c(C(C)(C)C)c1)Sc1cc(C(C)(C)C)c(OCCCC(=O)O)c(C(C)(C)C)c1 [Butanoic acid, 4-[4-[[1-[[3,5-bis(1,1-dimethylethyl)-4-hydroxyphenyl]thio]-1-methylethyl]thio]-2,6-bis(1,1-dimethylethyl)phenoxy]-] |  | 11 | 
CC(C)(Sc1ccc(OCCCC(=O)O)cc1)Sc1cc(C(C)(C)C)c(O)c(C(C)(C)C)c1 [Butanoic acid, 4-[4-[[1-[[3,5-bis(1,1-dimethylethyl)-4-hydroxyphenyl]thio]-1-methylethyl]thio]phenoxy]-] |  | 19 | 
CC(C)(CO)CC(=O)Oc1c(C(C)(C)C)cc(SC(C)(C)Sc2cc(C(C)(C)C)c(O)c(C(C)(C)C)c2)cc1C(C)(C)C [Butanoic acid, 4-hydroxy-3,3-dimethyl-, 4-[[1-[[3,5-bis(1,1-dimethylethyl)-4-hydroxyphenyl]thio]-1-methylethyl]thio]-2,6-bis(1,1-dimethylethyl)phenyl ester] |  | 110 | 
CC(C)(Sc1cc(C(C)(C)C)c(O)c(C(C)(C)C)c1)Sc1cc(C(C)(C)C)c(OC[C@@H](O)[C@@H](O)[C@H](O)[C@@H](O)CO)c(C(C)(C)C)c1 [D-Glucitol, 6-O-[4-[[1-[[3,5-bis(1,1-dimethylethyl)-4-hydroxyphenyl]thio]-1-methylethyl]thio]-2,6-bis(1,1-dimethylethyl)phenyl]-] |  | 15 | 
CC(C)(Sc1cc(C(C)(C)C)c(O)c(C(C)(C)C)c1)Sc1cc(C(C)(C)C)c(OC[C@H]2OC(O)[C@H](O)[C@@H](O)[C@@H]2O)c(C(C)(C)C)c1 (stereo partly drawn) [D-Glucopyranose, 6-O-[4-[[1-[[3,5-bis(1,1-dimethylethyl)-4-hydroxyphenyl]thio]-1-methylethyl]thio]-2,6-bis(1,1-dimethylethyl)phenyl]-] |  | 10 | 
CC(C)(Sc1cc(C(C)(C)C)c(O)c(C(C)(C)C)c1)Sc1cc(C(C)(C)C)c(OCC(=O)N[C@@H](CCC(=O)O)C(=O)O)c(C(C)(C)C)c1 [Glutamic acid, N-[[4-[[1-[[3,5-bis(1,1-dimethylethyl)-4-hydroxyphenyl]thio]-1-methylethyl]thio]-2,6-bis(1,1-dimethylethyl)phenoxy]acetyl]-] |  | 75 | 
CC(C)(Sc1cc(C(C)(C)C)c(O)c(C(C)(C)C)c1)Sc1cc(C(C)(C)C)c(OC(=O)CN)c(C(C)(C)C)c1 [Glycine, 4-[[1-[[3,5-bis(1,1-dimethylethyl)-4-hydroxyphenyl]thio]-1-methylethyl]thio]-2,6-bis(1,1-dimethylethyl)phenyl ester] |  | 5 | 
Cc1cc(SC(C)(C)Sc2cc(C(C)(C)C)c(O)c(C(C)(C)C)c2)cc(C)c1OC(=O)CN [Glycine, 4-[[1-[[3,5-bis(1,1-dimethylethyl)-4-hydroxyphenyl]thio]-1-methylethyl]thio]-2,6-dimethylphenyl ester] |  |  | inhibition at 20 µM (at 20 μM): 10%
CC(C)(Sc1cc(C(C)(C)C)c(OC(=O)CN)c(C(C)(C)C)c1)Sc1cc(C(C)(C)C)c(OC(=O)CN)c(C(C)(C)C)c1 [Glycine, (1-methylethylidene)bis[bis[thio-2,6-bis(1,1-dimethylthyl)-4,1-phenylene]]ester, dihydrochloride] | > 50 |  | 
CC(C)(Sc1cc(C(C)(C)C)c(O)c(C(C)(C)C)c1)Sc1cc(C(C)(C)C)c(OCC(O)CNCC(=O)O)c(C(C)(C)C)c1 (centres unmarked) [Glycine, N-[3-[4-[[1-[[3,5-bis(1,1-dimethylethyl)-4-hydroxyphenyl]thio]-1-methylethyl]thio]-2,6-bis(1,1-dimethylethyl)phenoxy]2-hydroxypropyl]-] |  | 16 | 
CC(C)(Sc1cc(C(C)(C)C)c(O)c(C(C)(C)C)c1)Sc1cc(C(C)(C)C)c(OCC2OC2CO)c(C(C)(C)C)c1 (centres unmarked) [Oxiranemethanol, 3-[[4-[[1-[[3,5-bis(1,1-dimethylethyl)-4-hydroxyphenyl]thio]-1-methylethyl]thio]-2,6-bis(1,1-dimethylethyl)phenoxy]methyl]-] | > 100 |  | 
CC(C)(Sc1cc(C(C)(C)C)c(O)c(C(C)(C)C)c1)Sc1cc(C(C)(C)C)c(OCC(O)C2CO2)c(C(C)(C)C)c1 (stereo not drawn) [Oxiranemethanol, α-[[4-[[1-[[3,5-bis(1,1-dimethylethyl)-4-hydroxyphenyl]thio]-1-methylethyl]thio]-2,6-bis(1,1-dimethylethyl)phenoxy]methyl]-] | 45 |  | 
